From patent US20190247376A1, “NICOTINIC ACETYLCHOLINE RECEPTOR AGONIST ATTENUATES ILC2-DEPENDENT AIRWAY HYPERREACTIVITY” (University of Southern California, priority 2016, published 2019)

Legend:
lung ILC2s [1] = experiment: In vitro stimulation of murine lung ILC2s, IL-5 and IL-13 by ELISA, viability by 7-AAD; format: cell-based, mouse
Procedure: FIGS. 2A-2C: α7nAChR agonist suppresses IL-5 and IL-13 production from ILC2s in vitro. BALB/cByJ mice were intranasally challenged with recombinant mouse IL-33 on days 1-3. On day 4 lung ILC2s were isolated and re-stimulated with rIL-33, rIL-2 and rIL-7 with or without α7nAChR agonist (2.5, 10 and 50 μg mL^−1) for 24 hours (FIG. 2A) or 48 hours (FIG. 2B). The levels of IL-5 and IL-13 were measured by ELISA. The viability of cultured ILC2s were assessed by staining with 7-AAD. (FIG. 2C) BALB/cByJ mice were intranasally challenged with recombinant mouse IL-33 on days 1-3, with or without α7nAChR agonist administration. On day 4 lung ILC2s were isolated and the number of IL-5^+ and IL-13^+ cells per 40×10^4 ILC2s were quantified. Values are expressed as the mean±SEM of five experiments (n=5; Student's t test *, p<0.05; **p<0.01).
FIG. 10: α7nAChR agonist suppresses cytokine production in ILC2s. Lung ILC2s were sorted from naïve BALB/cByJ mice and cultured with rm-IL-25 (10 ng mL−1) in the presence or absence of α7nAChR (10 μg mL−1) agonist for 24 hours. The levels of IL-5 and IL-13 were measured by ELISA. Data are representative of at least two independent experiments and are presented as means±SEM (n=4; Student's t test *, p<0.05).
Nicotine is known as a major constituent of cigarette smoke, which causes impairment of lung function and exacerbation of asthma. […] To address this question quantitatively, pulmonary ILC2s were isolated and cultured with increasing doses (2.5, 10 and 50 μg mL^−1) of α7nAChR agonist in the presence of rm-IL-33, rm-IL-2 and rm-IL-7. […] To verify that the actions of the agonist were not due to a reduction in the number of ILC2s, Applicants administered IL-33 to mice in vivo with or without agonist treatment, and then quantified the number of IL-5^+ and IL-13^+ ILC2s within a determined number of ILC2s (FIG. 2C). […]
Murine ILC2s were isolated from BALB/cByJ mice to >95% purity using the FACSARIA III cell sorter. […] Levels of cytokines were measured by ELISA (eBioscience), according to the manufacturer's instructions.

lung ILC2s [2] = experiment: Gene expression analysis of ILC2s with NanoString nCounter technology; format: cell-based, mouse; conditions: ILC2s from rm-IL-33 challenged mice with or without agonist
From the text: FIGS. 5A-5F: Cholinergic signal attenuates ILC2 proliferation and GATA3 expression. (FIG. 5A) Mean fluorescence intensity of Ki67 and percentage of Ki67+ cells in isolated lung ILC2s, stimulated with IL-33 in the absence and presence of α7nAChR. (FIG. 5B) Mean fluorescence intensity of GATA3 in isolated lung ILC2s, stimulated with IL-33 in the absence and presence of α7nAChR. One representative experiment of two is shown (n=5; Student's t test *, p<0.05; **, p<0.01; ***p<0.001). […] FACS-purified ILC2s from WT mice challenged with rm-IL-33 with or without α7nAChR agonist as described in FIG. 3A were quantified by NanoString nCounter technology. Data range from −1 to +1 for the most reduced and most increased gene expression, respectively. (FIG. 5D) Expression of NF-κB p65 in isolated lung ILC2s from mice challenged with IL-33 with (dotted line) or without (thick line) α7nAChR agonist. The level of isotype-matched stain control is shown as a gray-filled histogram. (FIG. 5E) Expression of phosphorylated IKKα/β (Ser176/180) in isolated lung ILC2s stimulated with IL-33, with (dotted line) or without (thick line) α7nAChR agonist for 24 hours. The level of isotype-matched stain control is shown as a gray-filled histogram. (FIG. 5F) Mean fluorescence intensity of phosphorylated IKKα/β with or without α7nAChR agonist.
Next, to investigate the molecular mechanism of α7nAChR agonist-mediated anti-inflammatory effects, Applicants analyzed the gene expression profile of ILC2s with or without α7nAChR agonist treatment by NanoString technology as described in the methods. […] Applicants further confirmed by flow cytometry that α7nAChR agonist reduced NF-κB p65 expression in ILC2s (FIG. 5D). To better establish the underlying mechanisms, Applicants explored the signaling pathway upstream of NF-κB by measuring the activated form of IKKα/β, which is phosphorylated on serine residues 176 and 180. Consistent with our previous results shown in FIG. 5D, α7nAChR agonist reduced phosphorylated IKKα/β expression in ILC2s (FIGS. 5E-5F). NF-κB and STAT-6 are both critical for GATA-3 transcription. The inhibition of GATA-3 expression results in a down-regulation of IL-5, IL-9 and IL-13 secretion from ILC2s.
The difference in the abundance of scripts between ILC2s purified from rm-IL33 administered mice with or without α7nAChR agonist were analyzed with NanoString nCounter technology. Heat plots were generated with R statistical software.

## COc1ccc(/C=C2\CCCN=C2c2cccnc2)c(OC)c1 [GTS-21, 3-[(3E)-3-[(2,4-dimethoxyphenyl)methylidene]-5,6-dihydro-4H-pyridin-2-yl]pyridine]
Lung ILC2s [1]; agonist 2.5, 10 and 50 μg mL−1, 24 or 48 hours
  viability of cultured ILC2s (7-AAD): independent of cell viability except at the highest tested dose
Lung ILC2s [1]; rm-IL-25 10 ng mL−1, agonist 10 μg mL−1, 24 hours
  IL-25-induced cytokine secretion (IL-5 and IL-13): susceptible to suppression
Lung ILC2s [1]; rm-IL-33, rm-IL-2, rm-IL-7, agonist 2.5, 10 and 50 μg mL−1, 24 or 48 hours
  IL-5 and IL-13 production from ILC2s (ELISA): dose-dependent anti-inflammatory effects
Lung ILC2s [2]
  RelA expression: unaffected
  expression at the mRNA level of NF-κB1: decrease
  expression of GATA-3, STAT-6, NF-κB, IL-5, IL-9 and IL-13 (IL-33/IL-25 signaling pathway genes): inhibited
  expression of STAT-5a, STAT-5b, and IL-2 receptors (IL-2/IL-7 signaling panel): relatively unaffected
  factors associated with apoptosis (Casp3, Casp8, Bcl-2): did not activate
